# Measured values published in publication PMC10974533, “Cationicity Enhancement on the Hydrophilic Face of Ctriporin Significantly Reduces Its Hemolytic Activity and Improves the Antimicrobial Activity against Antibiotic-Resistant ESKAPE Pathogens” (Toxins, 2024).
# Where a SMILES comes first, the peptide text is derived from it.
# Tests used:
# [1] = system: carbapenem-resistant (CRE) A. baumannii; details: cited from earlier work
# From the text: A wealth of CαAMPs have been identified from the venom glands of various scorpion species. Among these peptides, the members of short cationic AMP family are a group of cationic α-helical peptides with 17 to 19 residues, including Ctriporin [17], Mucroporin [18], Imcroporin [19], Stigmurin [20], TsAP-1 and TsAP-2 [21], AamAP1 and AamAP2 [22], and BmKb1 and BmKb2 [23]. Some peptides from this family were reported to show antimicrobial activity against methicillin-resistant S. aureus. We identified Lausporin-2 from the venom of Liocheles au ...
# [2] = system: E. coli 2687; assay: MIC, broth dilution, clinical isolate; type: cell-based; details: ESBL clinical isolate
# Method: (§1) The standard strains, including S. aureus ATCC29213 and ATCC25923, E. faecalis ATCC29212, E. coli ATCC25922 and ATCC35218, A. baumannii ATCC19606, K. pneumoniae ATCC700603, and P. aeruginosa ATCC27853, were purchased from the China Center of Type Culture Collection (CCTCC). The clinical strains of the ESKAPE pathogens were isolated from the affiliated hospitals of Hubei University of Medicine. All of them were stored at −80 °C before use. The drug sensitivities of the clinical strains were determined by the Kirby–Bauer test.
# (§2) The MICs were determined using the broth dilution method according to the guidelines of the Clinical and Laboratory Standards Institute (CLSI), as described in the previous studies. Briefly, the bacterial cells were incubated in Mueller–Hinton broth (MHB, Oxoid, Basingstoke, UK) at 37 °C and 150 rpm to the mid-growth phase and diluted to achieve a final concentration of 5 × 10^5 colony-forming units per milliliter (CFU/mL). Then, the cells were mixed with each peptide in different concentrations (1, 2, 4, 8, 16, 32, and 64 μg/mL). […] All experiments were repeated at least three times.
# [3] = system: S. aureus 891; assay: MIC, broth dilution, clinical isolate; type: cell-based; details: MRSA clinical isolate
# Method: as §1, §2
# [4] = system: A. baumannii 19462; assay: MIC, broth dilution, clinical isolate; type: cell-based; details: CRE/MDR clinical isolate
# Method: as §1, §2
# [5] = system: human red blood cells (hRBC); assay: Hemolytic activity determination; type: cell-based; details: 256 μg/mL peptide, 2% (v/v) hRBC, 37 °C, 1 h, OD540, 1% Triton X-100 = 100%; average ± standard error of three independent experiments
# Method: Figure 2 Hemolytic activities of Ctriporin and its analogs against human red blood cells (hRBC). Hemolytic activities of Ctriporin (solid circle), CM1 (open circle), CM2 (open square), CM3 (upward triangle), CM4 (downward triangle), CM5 (half solid circle), CM6 (half solid square), and CM7 (half solid triangle), were measured against 2% (v/v) human red blood cells. The peptide concentrations are 0, 2, 4, 8, 16, 32, 64, 128, 256, and 512 μg/mL. The cells treated with 1% Triton X-100 were treated as 100% hemolysis. All experiments were repeated three times, and the data shown are the average ± standard error.
# The hemolytic activities of the peptides were determined against human red blood cells (hRBCs). As described, sodium citrate-anticoagulated hRBCs were washed three times with 0.9% sodium chloride and diluted to a final concentration of 4% (v/v). Then, an equal volume of hRBC solutions was mixed with an equal volume of each peptide in a series of concentrations (0, 2, 4, 8, 16, 32, 64, 128, 256, and 512 μg/mL). After co-incubation at 37 °C for 1 h, the degree of hemolysis of the peptides was determined by detecting the release of hemoglobin from the damaged hRBCs by measuring the optical density at 540 nm (OD540). hRBCs in 0.9% sodium chloride and 1% Triton X-100 were considered 0% and 100% hemolysis, respectively. The results shown are the average ± standard error of data derived from three independent experiments. The percent hemolysis was calculated according to the following equation [53, 54]:Hemolysis (%) = 100 × (Asample − Ablank)/(Apositive − Ablank)
# [6] = system: S. aureus ATCC29213; assay: MIC, broth dilution, standard strain; type: cell-based; details: broth dilution (CLSI), MHB, 37 °C, 16–20 h
# Method: as §1, §2
# [7] = system: P. aeruginosa ATCC27853; assay: MIC, broth dilution, standard strain; type: cell-based; details: broth dilution (CLSI), MHB, 37 °C, 16–20 h
# Method: as §1, §2
# [8] = system: K. pneumoniae ATCC700603; assay: MIC, broth dilution, standard strain; type: cell-based; details: broth dilution (CLSI), MHB, 37 °C, 16–20 h
# Method: as §1, §2
# [9] = system: E. coli ATCC25922; assay: MIC, broth dilution, standard strain; type: cell-based; details: broth dilution (CLSI), MHB, 37 °C, 16–20 h
# Method: as §1, §2
# [10] = system: E. coli ATCC35218; assay: MIC, broth dilution, standard strain; type: cell-based; details: broth dilution (CLSI), MHB, 37 °C, 16–20 h
# Method: as §1, §2
# [11] = system: S. aureus ATCC25923; assay: MIC, broth dilution, standard strain; type: cell-based; details: broth dilution (CLSI), MHB, 37 °C, 16–20 h
# Method: as §1, §2
# [12] = system: E. faecium ATCC29212; assay: MIC, broth dilution, standard strain; type: cell-based; details: broth dilution (CLSI), MHB, 37 °C, 16–20 h
# Method: as §1, §2
# [13] = system: A. baumannii ATCC19606; assay: MIC, broth dilution, standard strain; type: cell-based; details: broth dilution (CLSI), MHB, 37 °C, 16–20 h
# Method: as §1, §2
# [14] = system: standard ESKAPE strains; type: cell-based; details: broth dilution (CLSI), MHB
# Method: The ESKAPE pathogens represent the main threat to public health concerning antimicrobial resistance. Therefore, we first evaluated the antimicrobial activities of Ctriporin and its analogs against the standard ESKAPE strains. The minimum inhibitory concentration (MIC) was chosen as the index for the evaluation of each peptide’s activity. […] Note that the MICs of CM4 and CM7 are 4–32 and 8–32 μg/mL, respectively, indicating the existence of significant bacterial species deviations for the antimicrobial activity of these peptides. In addition, the replacement of specific residues, especially Pro^7, may harm the antimicrobial activities of the peptide.
# as §1, §2
# [15] = broth dilution (CLSI), MHB, 5 × 10^5 CFU/mL, 37 °C, 16–20 h, OD630
# [16] = 5 × 10^5 CFU/mL, OD630, repeated at least three times
structure (smiles),measurement,setting,value
CC[C@H](C)[C@H](NC(=O)[C@H](C)NC(=O)CNC(=O)[C@@H]1CCCN1C(=O)[C@@H](NC(=O)[C@H](CC(C)C)NC(=O)CNC(=O)[C@H](Cc1c[nH]c2ccccc12)NC(=O)[C@H](CC(C)C)NC(=O)[C@@H](N)Cc1ccccc1)[C@@H](C)CC)C(=O)N[C@@H](CO)C(=O)N[C@@H](C)C(=O)N[C@H](C(=O)N[C@H](C(=O)N[C@@H](CO)C(=O)N[C@@H](CC(C)C)C(=O)N[C@H](C(=O)N[C@@H](CCCCN)C(=O)N[C@@H](CCCCN)C(N)=O)[C@@H](C)CC)[C@@H](C)O)C(C)C [Ctriporin] (H-FLWGLIPGAISAVTSLIKK-NH2; N-terminus assumed),antimicrobial activity against carbapenem-resistant (CRE) A. baumannii,[1],moderate antimicrobial activity
same,MICs,[2]; [15],> 64 µg/mL
same,MICs,[2]; value in parentheses,> 31.8 µM
same,MICs,[3]; [15],16 µg/mL
same,MICs,[3]; value in parentheses,8.0 µM
same,MICs,[4]; [15],16 µg/mL
same,MICs,[4]; value in parentheses,8.0 µM
same,Hemolysis% at 256 μg/mL,[5],90.6 ± 11.8%
same,MICs,[6]; [16],16 µg/mL
same,MICs,[6]; value in parentheses,8.0 µM
same,MICs,[7]; [16],> 64 µg/mL
same,MICs,[7]; value in parentheses,> 31.8 µM
same,MICs,[8]; [16],> 64 µg/mL
same,MICs,[8]; value in parentheses,> 31.8 µM
same,MICs,[9]; [16],64 µg/mL
same,MICs,[9]; value in parentheses,31.8 µM
same,MICs,[10]; [16],> 64 µg/mL
same,MICs,[10]; value in parentheses,> 31.8 µM
same,MICs,[11]; [16],32 µg/mL
same,MICs,[11]; value in parentheses,15.9 µM
same,MICs,[12]; [16],64 µg/mL
same,MICs,[12]; value in parentheses,31.8 µM
same,MICs,[13]; [16],16 µg/mL
same,MICs,[13]; value in parentheses,8.0 µM
same,MICs against S. aureus and A. baumannii,[14]; standard strains of S. aureus and A. baumannii,16 to 32 µg/mL
same,MICs for other tested bacterial species,[14]; standard strains other than S. aureus and A. baumannii,≥ 64 µg/mL
